Experimental findings from patent publication US20060257322A1, “Pharmaceutical agents that contain fluoroalkyl-containing metal complexes and epothilones” (priority 2005, published 2006) are described below.

The test system of series [1] is A549 lung tumors. The series is classed as in vivo, hairless mice. As to conditions: day 0 normalized to 1. As to the method:
(§1) A549 lung tumors were induced in hairless mice (4×10^6 cells/30 μl of full medium). Animal weights and tumor surface areas/volumes were determined, and in this case, the tumor surface area or the tumor volume (based on an ellipsoid of revolution) was calculated. Length and width of the tumor were measured with vernier calipers. After reaching the size of a pea, the treatment was begun.
(§2) • (a) 20 mmol of Gd/l of the Gd complex compound as mentioned in Example 1 or 3 (as a comparison solution=Blank reading) • (b) 1.5 mmol/l of the epothilone as mentioned in Example 1 or 3, in aqueous hydroxypropyl-β-cyclodextrin solution (prior art) (For the production of formulations in the prior art, see WO 99/07692 and WO 00/4902 1) • (c) Formulation of Example 1 or 3 (formulation according to the invention) Dosages: • (a) 100 μmol of Gd/kg of body weight • (b) 11 μmol/kg or 18 μmol/kg of body weight • (c) 100 μmol of Gd/kg+11 (or 18) μmol of epothilone/kg of body weight (corresponds to the ratio in the formulation of Example 1 or 3).
(§3) The animal weights and tumor sizes were measured over a period of 20 days after intravenous administration.

The format of series [2] is in vivo, hairless mice. The following applies: for Relative animal weights: day 0 (about 30-35 g) normalized to 1. The procedure: as §1, §2, §3
The mark [3] stands for this setting: Day 5, 11 μmol of epothilone/kg of body weight i.v. (formulations: plus 100 μmol of Gd/kg).
Setting [4] is: Day 11, 11 μmol of epothilone/kg of body weight i.v. (formulations: plus 100 μmol of Gd/kg).
[5] abbreviates: Day 15, 11 μmol of epothilone/kg of body weight i.v. (formulations: plus 100 μmol of Gd/kg).
Where [6] appears, read: Day 20, 11 μmol of epothilone/kg of body weight i.v. (formulations: plus 100 μmol of Gd/kg).
Setting [7] is: first days after substance administration, 11 μmol of epothilone/kg of body weight i.v.
Where [8] appears, read: Day 5, 18 μmol of epothilone/kg of body weight i.v. (formulations: plus 100 μmol of Gd/kg).
The mark [9] stands for this setting: Day 11, 18 μmol of epothilone/kg of body weight i.v. (formulations: plus 100 μmol of Gd/kg).
[10] abbreviates: Day 15, 18 μmol of epothilone/kg of body weight i.v. (formulations: plus 100 μmol of Gd/kg).
The mark [11] stands for this setting: Day 20, 18 μmol of epothilone/kg of body weight i.v. (formulations: plus 100 μmol of Gd/kg).
Setting [12] is: first days after substance administration, 18 μmol of epothilone/kg of body weight i.v.

Several values for one entry are separate records, joined by “and”; a condition that tells them apart may be missing. Equal values may be shown once. Read-outs that look alike come from different tables or passages of the source.

On to `C#CC[C@H]1C(=O)C(C)(C)[C@@H](O)CC(=O)O[C@H](/C(F)=C/c2coc(C)n2)C/C=C(/C)CCC[C@H](C)[C@@H]1O` [Epothilone N, (4S,7R,8S,9S,13(Z),16S(Z))-4,8-Dihydroxy-16-(1-fluoro-2-(2-methyloxazol-4-yl)ethenyl)-7-(prop-2-in-1-yl)-1-oxa-5,5,9,13-tetramethyl-cyclohexadec-13-ene-2,6-dione], for which the “Relative tumor surface area” value in series [1] (setting [3]) worked out at 1.1 ± 0.1; in series [1] (setting [4]), 1.2 ± 0.2; in series [1] (setting [5]), 1.5 ± 0.3; in series [1] (setting [6]) it was 1.6 ± 0.4. Besides, the Relative animal weights is listed as 0.94 in series [2] (setting [3]), 0.97 in series [2] (setting [4]), 0.98 in series [2] (setting [5]) and 0.96 in series [2] (setting [6]). In addition, in series [2] (setting [7]), the “Relative animal weights (in words)” value is recorded as “small weight loss”.

For the compound `CC[C@H]1C(=O)C(C)(C)[C@@H](O)CC(=O)O[C@H](/C(F)=C/c2ccccn2)C/C=C(/C)CCC[C@H](C)[C@@H]1O` [Epothilone G, 4S,7R,8S,9S,13(Z),16S(Z)-4,8-Dihydroxy-16-(1-fluoro-2-(2-pyridyl)ethenyl)-7-ethyl-1-oxa-5,5,9,13-tetramethyl-cyclohexadec-13-ene-2,6-dione], the “Relative tumor surface area” value was determined as 1.1 ± 0.1 in series [1] (setting [3]); 1.1 ± 0.1 in series [1] (setting [8]); 1.3 ± 0.1 in series [1] (setting [4]); 1.3 ± 0.4 in series [1] (setting [9]); 1.5 ± 0.3 in series [1] (setting [5]); 1.5 ± 0.3 in series [1] (setting [10]). Also, the “Relative tumor surface area” value in series [1] (setting [6]) and in series [1] (setting [11]) was 1.6 ± 0.2 throughout. In addition, the Relative animal weights is 0.94 in series [2] (setting [3]); 0.945 in series [2] (setting [8]); 0.97 in series [2] (setting [4]); 0.97 in series [2] (setting [9]); 0.95 in series [2] (setting [5]); 0.97 in series [2] (setting [10]). The Relative animal weights in series [2] (setting [6]) was found to be 0.96; in series [2] (setting [11]), 0.98. The “Relative animal weights (in words)” value in series [2] (setting [7]) and in series [2] (setting [12]) was “small weight loss” throughout.

Take `C#CC[C@H]1C(=O)C(C)(C)[C@@H](O)CC(=O)O[C@H](/C(F)=C/c2csc(C)n2)C/C=C(/C)CCC[C@H](C)[C@@H]1O` [Epothilone L, (4S,7R,8S,9S,13(Z),16S(Z))-4,8-Dihydroxy-16-(1-fluoro-2-(2-methylthiazol-4-yl)ethenyl)-7-(prop-2-in-1-yl)-1-oxa-5,5,9,13-tetramethyl-cyclohexadec-13-ene-2,6-dione]: the “Relative tumor surface area” value is 1.1 ± 0.1 in series [1] (setting [3]); 1.1 ± 0.1 in series [1] (setting [8]); 1.3 ± 0.1 in series [1] (setting [4]); 1.3 ± 0.2 in series [1] (setting [9]); 1.5 ± 0.2 in series [1] (setting [5]); 1.5 ± 0.2 in series [1] (setting [10]). Besides, the “Relative tumor surface area” value in series [1] (setting [6]) is on record as 1.5 ± 0.2; in series [1] (setting [11]), 1.5 ± 0.1. The Relative animal weights in series [2] (setting [3]) stood at 0.93; in series [2] (setting [8]), 0.94; in series [2] (setting [4]), 0.96; in series [2] (setting [9]) it was 0.95; in series [2] (setting [5]), 0.97; in series [2] (setting [10]), 0.97. Besides, the Relative animal weights is reported as 0.98 in series [2] (setting [6]) and 0.96 in series [2] (setting [11]). Moreover, the “Relative animal weights (in words)” value in series [2] (setting [7]) and in series [2] (setting [12]) was “small weight loss” throughout.

As for `C=CC[C@H]1C(=O)C(C)(C)[C@@H](O)CC(=O)O[C@H](c2ccc3sc(C)nc3c2)C[C@@H]2O[C@]2(C)CCC[C@H](C)[C@@H]1O` [Epothilone F, (1S,3S,7S,10R,11S,12S,16R)-7,11-Dihydroxy-3-(2-methylbenzothiazol-5-yl)-10-(prop-2-en-1-yl)-8,8,12,16-tetramethyl-4,17-dioxabicyclo[14.1.0]heptadecane-5,9-dione], the “Relative tumor surface area” value is 1.1 ± 0.1 in series [1] (setting [3]); 1.1 ± 0.1 in series [1] (setting [8]); 1.3 ± 0.2 in series [1] (setting [4]); 1.2 ± 0.2 in series [1] (setting [9]); 1.5 ± 0.3 in series [1] (setting [5]); 1.4 ± 0.1 in series [1] (setting [10]). In addition, the “Relative tumor surface area” value in series [1] (setting [6]) amounted to 1.5 ± 0.4; in series [1] (setting [11]), 1.5 ± 0.2. Besides, the Relative animal weights is recorded as 0.94 in series [2] (setting [3]); 0.92 in series [2] (setting [8]); 0.97 in series [2] (setting [4]); 0.93 in series [2] (setting [9]); 0.97 in series [2] (setting [5]); 0.97 in series [2] (setting [10]). Further, the Relative animal weights in series [2] (setting [6]) was determined as 0.96; in series [2] (setting [11]), 0.99. For the same compound, the “Relative animal weights (in words)” value in series [2] (setting [7]) and in series [2] (setting [12]) was “small weight loss” throughout.

On to `C#CCC[C@H]1C(=O)C(C)(C)[C@@H](O)CC(=O)O[C@H](/C(C)=C/c2ccccn2)C/C=C(/C)CCC[C@H](C)[C@@H]1O` [Epothilone I, (4S,7R,8S,9S,13(Z),16S(E))-4,8-Dihydroxy-16-(1-methyl-2-(2-pyridyl)ethenyl)-1-oxa-5,5,9,13-tetramethyl-7-(but-3-in-1-yl)-cyclohexadec-13-ene-2,6-dione], for which the “Relative tumor surface area” value in series [1] (setting [3]) was determined as 1.2 ± 0.1; in series [1] (setting [4]) it was 1.3 ± 0.3; in series [1] (setting [5]), 1.4 ± 0.3; in series [1] (setting [6]) it was 1.5 ± 0.1. Moreover, the Relative animal weights in series [2] (setting [3]) was 0.93; in series [2] (setting [4]), 0.97; in series [2] (setting [5]), 0.97; in series [2] (setting [6]), 0.98. For the same compound, in series [2] (setting [7]), the “Relative animal weights (in words)” value was “small weight loss”.

As for `Cc1nc(/C=C(\Cl)[C@@H]2C[C@@H]3O[C@]3(C)CCC[C@H](C)[C@H](O)[C@@H](C)C(=O)C(C)(C)[C@@H](O)CC(=O)O2)cs1` [Epothilone C, (1S,3S(Z),7S,10R,11S,12S,16R)-7,11-Dihydroxy-3-(1-chloro-2-(2-methyl-4-thiazolyl)ethenyl)-8,8,10,12,16-pentamethyl-4,17-dioxabicyclo[14.1.0]heptadecane-5,9-dione], the “Relative tumor surface area” value in series [1] (setting [3]) came to 1.1 ± 0.1; in series [1] (setting [8]) it was 1.1 ± 0.1; in series [1] (setting [4]), 1.4 ± 0.3; in series [1] (setting [9]) it was 1.3 ± 0.3; in series [1] (setting [5]), 1.5 ± 0.3; in series [1] (setting [10]) it was 1.6 ± 0.3. The “Relative tumor surface area” value in series [1] (setting [6]) and in series [1] (setting [11]) was 1.5 ± 0.2 each time. The “Relative animal weights (in words)” value in series [2] (mouse, in vivo, iv) is reported as “small weight loss”.

As to `C=CC[C@H]1C(=O)C(C)(C)[C@@H](O)CC(=O)O[C@H](/C(C)=C/c2csc(C)n2)C/C=C(/C)CCC[C@H](C)[C@@H]1O` [Epothilone K, (4S,7R,8S,9S,13(Z),16S(E))-4,8-Dihydroxy-16-(1-methyl-2-(2-methylthiazol-4-yl)ethenyl)-1-oxa-5,5,9,13-tetramethyl-7-(prop-2-en-1-yl)-cyclohexadec-13-ene-2,6-dione], the “Relative tumor surface area” value in series [1] (setting [8]) was 1.1 ± 0.1; in series [1] (setting [9]), 1.3 ± 0.3 and 1.3 ± 0.1; in series [1] (setting [10]) it was 1.5 ± 0.2; in series [1] (setting [11]) it was 1.6 ± 0.1 and 1.5 ± 0.2. The “Relative animal weights (in words)” value in series [2] (mouse, in vivo, iv) is on record as “small weight loss”.
